# Measured values published in BindingDB's records for doi:10.1002/cbic.201600697 (University of Tartu, 2017).
# pKd: −log10 of the molar value. Values joined by “and” are separate entries in the source; they are usually repeats but may differ in a detail not shown here. Equal entries are not always repeated.
# Key:
# Settings in all cases: pH 7.5
# [1] = molecular target: cAMP-dependent protein kinase catalytic subunit alpha (Homo sapiens, UniProt P17612); experiment: Equilibrium Binding/Displacement Assay with Fluorescence Anisotropy
# Description: (§1) All measurements were performed in HEPES (50 mm, pH 7.5) containing NaCl (150 mm), Tween-20 (0.005%) and DTT (5 mm) according to a previously published protocol.[Vaasa et al., Anal. Biochem., 385:85-93] The final volume of the assay mixture was […].
# [2] = molecular target: T1, Serine/threonine-protein kinase haspin [470-798] (Homo sapiens, UniProt Q8TF76); experiment: as above
# T1 construct: 470-798
# T1 sequence (Q8TF76 whole entry): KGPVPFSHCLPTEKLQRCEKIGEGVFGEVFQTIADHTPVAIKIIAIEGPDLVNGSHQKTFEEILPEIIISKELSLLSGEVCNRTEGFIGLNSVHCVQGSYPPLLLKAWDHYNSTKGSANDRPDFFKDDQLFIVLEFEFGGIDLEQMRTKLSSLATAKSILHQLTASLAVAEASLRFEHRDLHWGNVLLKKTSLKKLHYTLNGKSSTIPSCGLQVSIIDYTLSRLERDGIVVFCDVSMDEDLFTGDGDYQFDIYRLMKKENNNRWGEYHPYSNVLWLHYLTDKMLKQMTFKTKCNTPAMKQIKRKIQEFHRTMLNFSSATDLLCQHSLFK
# Description: as §1
# [3] = molecular target: T1, Serine/threonine-protein kinase haspin [470-798]; experiment: Kinetic Assay with Fluorescence Anisotropy
# Description: Association kinetics (Kon): All measurements were performed in HEPES (50 mM, pH 7.5) containing NaCl (150 mM), Tween-20 (0.005%) and DTT (5 mM) according to a previously published protocol.[Vaasa et al., Anal. Biochem., 385:85-93] The final volume of the assay mixture was […] The association kinetics assay with fluorescent probes and data analysis were performed according to published protocols.[Vaasa et al., Anal. Biochem., 385:85-93] The final volume of the assay mixture was […]. Dissociation kinetics (Koff): All measurements were performed in HEPES (50 mM, pH 7.5) containing NaCl (150 mM), Tween-20 0.005%) and DTT (5 mM). Data analysis was as reported previously,[Vaasa et al., Anal. Biochem., 385:85-93] by using method1 for compounds with shorter residence times, and method 2 for 1 in studies with haspin. The final volume of the assay mixture was […]. Kd' is calculated as Koff/Kon.
pKd [1],pKd [2],pKd [3],SMILES
7.28,7.96,8.55,CC(O)[C@H](NC(=O)[C@H](CCC(N)=O)NC(=O)[C@H](CCCNC(=N)N)NC(=O)[C@H](CCCCNC(=O)C[C@@H](NC(=O)CCCCCNC(=O)[C@H]1O[C@@H](n2ccc3c(N)ncnc32)[C@H](O)[C@@H]1O)C(=O)[O-])NC(=O)[C@H](CCCNC(=N)N)NC(=O)[C@H](C)N)C(=O)N[C@@H](C)C(=O)N[C@H](CCCCNC(=O)c1ccc(-c2c3ccc(=[N+](C)C)cc-3oc3cc(N(C)C)ccc23)c(C(=O)O)c1)C(N)=O (stereo partly specified) [ARC-3384]
7.03,9.85 and 10.72,–,CC(O)[C@H](NC(=O)[C@H](CCC(N)=O)NC(=O)[C@H](CCCNC(=N)N)NC(=O)[C@H](CCCCNC(=O)C[C@@H](NC(=O)CCCCCNC(=O)[C@H]1O[C@@H](n2cc(I)c3c(N)ncnc32)[C@H](O)[C@@H]1O)C(=O)O)NC(=O)[C@H](CCCNC(=N)N)NC(=O)[C@H](C)N)C(=O)N[C@@H](C)C(=O)N[C@H](CCCCN)C(N)=O (stereo partly specified) [ARC-3429]
8.02,8.08,7.83,CCCCCCCCCCCCCC(=O)NCCCC[C@@H](NC(=O)[C@H](C)NC(=O)[C@@H](NC(=O)[C@H](CCC(N)=O)NC(=O)[C@H](CCCNC(=N)N)NC(=O)[C@H](CCCCNC(=O)C[C@@H](NC(=O)CCCCCNC(=O)[C@H]1O[C@@H](n2ccc3c(N)ncnc32)[C@H](O)[C@@H]1O)C(=O)[O-])NC(=O)[C@H](CCCNC(=N)N)NC(=O)[C@H](C)N)C(C)O)C(=O)N[C@H](CCCCNC(=O)c1ccc(-c2c3ccc(=[N+](C)C)cc-3oc3cc(N(C)C)ccc23)c(C(=O)O)c1)C(N)=O (stereo partly specified) [ARC-3380]
8.39,9.30 and 9.92,10.00,CC(O)[C@H](NC(=O)[C@H](CCC(N)=O)NC(=O)[C@H](CCCNC(=N)N)NC(=O)[C@H](CCCCNC(=O)C[C@@H](NC(=O)CCCCCNC(=O)[C@H]1O[C@@H](n2cc(I)c3c(N)ncnc32)[C@H](O)[C@@H]1O)C(=O)[O-])NC(=O)[C@H](CCCNC(=N)N)NC(=O)[C@H](C)N)C(=O)N[C@@H](C)C(=O)N[C@H](CCCCNC(=O)c1ccc(-c2c3ccc(=[N+](C)C)cc-3oc3cc(N(C)C)ccc23)c(C(=O)O)c1)C(N)=O (stereo partly specified) [ARC-3430]
